From patent US12655116B2, “Substituted isophthalic acid diamides” (Bayer Aktiengesellschaft, priority 2020, dated 2026)

Columns and labels:
VIOTR [1] = assay: Pre-emergence herbicidal action against VIOTR; type: in vivo, Viola tricolor
Procedure, shortened: (§1)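 Sandy loam pots, seeds covered with soil, then surface-treated with WP or EC formulations at 600–800 l/ha water plus 0.2% wetting agent. Greenhouse, 3 weeks. Percent damage vs untreated controls.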

DIGSA = assay: Pre-emergence herbicidal action against DIGSA; type: in vivo, Digitaria sanguinalis
Procedure, shortened: as §1

PHBPU [2] = assay: Pre-emergence herbicidal action against PHBPU; type: in vivo, Pharbitis purpurea
Procedure, shortened: as §1

MATIN [3] = assay: Pre-emergence herbicidal action against MATIN; type: in vivo, Matricaria inodora
Procedure, shortened: as §1

ECHCG [4] = assay: Pre-emergence herbicidal action against ECHCG; type: in vivo, Echinochloa crus-galli
Procedure, shortened: as §1

ECHCG [5] = assay: Post-emergence herbicidal action against ECHCG; type: in vivo, Echinochloa crus-galli
Procedure, shortened: (§2)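 Herbicidal action is a visual percentage rating (0% = as untreated control, 100% = plants dead) made roughly 3 weeks after treatment. Plants were grown in sandy loam in the greenhouse and treated at the one-leaf stage, 2 to 3 weeks post-sowing. Treatment was a foliar spray of wettable-powder or emulsion-concentrate formulations at 600 to 800 l/ha water plus 0.2% wetting agent.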

ABUTH [6] = assay: Pre-emergence herbicidal action against ABUTH; type: in vivo, Abutilon theophrasti; conditions: for Pre-emergence action against ABUTH (herbicidal activity): 80 g/ha, scored visually after 3 weeks vs untreated controls (100% = plants have died, 0% = like control plants); for Pre-emergence action against ABUTH (herbicidal activity in percent): dosage 20 g/ha, scored visually after 3 weeks vs untreated controls, 100% = plants have died, 0% = like control plants
Procedure, shortened: as §1

SETVI [7] = assay: Pre-emergence herbicidal action against SETVI; type: in vivo, Setaria viridis
Procedure, shortened: as §1

ABUTH [8] = assay: Post-emergence herbicidal action against ABUTH; type: in vivo, Abutilon theophrasti; conditions: visual assessment about 3 weeks after treatment vs untreated controls
Procedure, shortened: as §2

PHBPU [9] = assay: Post-emergence herbicidal action against PHBPU; type: in vivo, Pharbitis purpurea
Procedure, shortened: as §2

ALOMY [10] = assay: Pre-emergence herbicidal action against ALOMY; type: in vivo, Alopecurus myosuroides; conditions: 80 g/ha, pre-emergence, scored visually after 3 weeks vs untreated controls (100% = plants have died, 0% = like control plants)
Procedure, shortened: as §1

VERPE [11] = assay: Post-emergence herbicidal action against VERPE; type: in vivo, Veronica persica; conditions: 20 g/ha
Procedure, shortened: as §2

AVEFA [12] = assay: Post-emergence herbicidal action against AVEFA; type: in vivo, Avena fatua; conditions: 20 g/ha, visual assessment about 3 weeks after treatment, 100% = plants have died, 0% = like control plants
Description: Seeds of monocotyledonous and dicotyledonous weed and crop plants are laid out in sandy loam soil in wood-fiber pots, covered with soil and cultivated in a greenhouse under good growth conditions. 2 to 3 weeks after sowing, the test plants are treated at the one-leaf stage. The compounds of the invention, formulated in the form of wettable powders (WP) or as emulsion concentrates (EC), are then sprayed onto the green parts of the plants in the form of an aqueous suspension or emulsion at a water application rate equivalent to 600 to 800 l/ha, with addition of 0.2% wetting agent. After the test plants have been left to stand in the greenhouse under optimal growth conditions for about 3 weeks, the action of the preparations is assessed visually in comparison to untreated controls (herbicidal action in percent (%): 100% activity=the plants have died, 0% activity=like control plants). […] The tables below illustrate, in an illustrative manner, the post-emergence herbicidal action of the compounds of the invention, the herbicidal activity being stated in percent.

VERPE [13] = assay: Pre-emergence herbicidal action against VERPE; type: in vivo, Veronica persica; conditions: dosage 80 g/ha
Procedure, shortened: as §1

AMARE [14] = assay: Pre-emergence herbicidal action against AMARE; type: in vivo, Amaranthus retroflexus
Procedure, shortened: as §1

AVEFA [15] = assay: Pre-emergence herbicidal action against AVEFA; type: in vivo, Avena fatua; conditions: 80 g/ha, pre-emergence
Procedure, shortened: as §1

AMARE [16] = assay: Post-emergence herbicidal action against AMARE; type: in vivo, Amaranthus retroflexus; conditions: 20 g/ha, visual assessment about 3 weeks after treatment, 100% = plants have died, 0% = like control plants
Procedure, shortened: as §2

VIOTR [17] = assay: Post-emergence herbicidal action against VIOTR; type: in vivo, Viola tricolor
Procedure, shortened: as §2

ALOMY [18] = assay: Post-emergence herbicidal action against ALOMY; type: in vivo, Alopecurus myosuroides; conditions: dosage 20 g/ha, visual assessment about 3 weeks after treatment vs untreated controls
Procedure, shortened: as §2

MATIN [19] = assay: Post-emergence herbicidal action against MATIN; type: in vivo, Matricaria inodora
Procedure, shortened: as §2

SETVI [20] = assay: Post-emergence herbicidal action against SETVI; type: in vivo, Setaria viridis
Procedure, shortened: as §2

[21] = 20 g/ha, scored visually after 3 weeks vs untreated controls, 100% = plants have died, 0% = like control plants
[22] = 80 g/ha, scored visually after 3 weeks vs untreated controls (100% = plants have died, 0% = like control plants)

| Structure (SMILES) | Pre-emergence action against VIOTR in % (VIOTR [1]; dosage 20 g/ha) [%] | Pre-emergence action against VIOTR in % (VIOTR [1]; dosage 80 g/ha) [%] | Pre-emergence action against DIGSA in % (DIGSA; dosage 20 g/ha) [%] | Pre-emergence action against DIGSA in % (DIGSA; dosage 80 g/ha) [%] | Pre-emergence action against PHBPU in % (PHBPU [2]; dosage 80 g/ha) [%] | Pre-emergence action against MATIN in % (MATIN [3]; dosage 20 g/ha) [%] | Pre-emergence action against MATIN in % (MATIN [3]; dosage 80 g/ha) [%] | Pre-emergence action against ECHCG in % (ECHCG [4]; 80 g/ha) [%] | Post-emergence action against ECHCG in % (ECHCG [5]; dosage 20 g/ha) [%] | Pre-emergence action against ABUTH (herbicidal activity) (ABUTH [6]) [%] | Pre-emergence action against ABUTH (herbicidal activity in percent) (ABUTH [6]) [%] | Pre-emergence action against SETVI in % (SETVI [7]; dosage 80 g/ha) [%] | Post-emergence action against ABUTH in % (ABUTH [8]; dosage 5 g/ha) [%] | Post-emergence action against ABUTH in % (ABUTH [8]; dosage 20 g/ha) [%] | Post-emergence action against PHBPU in % (PHBPU [9]; dosage 20 g/ha) [%] | Pre-emergence action against ALOMY (herbicidal activity) (ALOMY [10]) [%] | Post-emergence action at 20 g/ha against AVEFA in % (AVEFA [12]) [%] | Pre-emergence action against AMARE in % (AMARE [14]; [21]) [%] | Pre-emergence action against AMARE in % (AMARE [14]; [22]) [%] | Pre-emergence action against AVEFA in % (AVEFA [15]) [%] | also measured |
| --- | --- | --- | --- | --- | --- | --- | --- | --- | --- | --- | --- | --- | --- | --- | --- | --- | --- | --- | --- | --- | --- |
| Cc1c(C(=O)Nc2nnnn2C)ccc(C(F)(F)F)c1C(=O)NC(C)C1CC1 (stereo not shown) [Example 1-31] | 100 | 100 | 100 | 100 | 80 | 100 | 100 | 100 | 80 | 100 | 100 | 100 | 80 | 80 | 80 | 90 | 90 | 100 | 100 | 90 | Pre-emergence action against ECHCG in % (ECHCG [4]; 20 g/ha): 90%; Post-emergence action against ECHCG in % (ECHCG [5]; dosage 5 g/ha): 80%; Post-emergence action against VERPE in % (VERPE [11]): 80%; Pre-emergence action against VERPE in % (VERPE [13]): 100% |
| CCn1nnnc1NC(=O)c1ccc(C(F)(F)F)c(C(=O)NCC(F)F)c1SC [Example 2-86] |  | 100 |  |  | 90 | 100 | 100 | 100 | 100 | 100 | 100 | 100 | 80 | 100 | 90 | 90 | 80 | 100 | 100 | 90 | Post-emergence action at 20 g/ha against AMARE in % (AMARE [16]): 100%; Pre-emergence action against PHBPU in % (PHBPU [2]; dosage 20 g/ha): 80%; Pre-emergence action against ECHCG in % (ECHCG [4]; 20 g/ha): 80%; Post-emergence action against VIOTR in % (VIOTR [17]; 5 g/ha): 100%; Post-emergence action against VIOTR in % (VIOTR [17]; 20 g/ha): 100%; Post-emergence action against ECHCG in % (ECHCG [5]; dosage 5 g/ha): 100%; Post-emergence action against ALOMY in % (ALOMY [18]): 80%; Post-emergence action against MATIN in % (MATIN [19]; dosage 5 g/ha): 80%; Post-emergence action against MATIN in % (MATIN [19]; dosage 20 g/ha): 90%; Post-emergence action against PHBPU in % (PHBPU [9]; dosage 5 g/ha): 80%; Post-emergence action against SETVI in % (SETVI [20]; dosage 5 g/ha): 100%; Post-emergence action against SETVI in % (SETVI [20]; dosage 20 g/ha): 100%; Pre-emergence action against VERPE in % (VERPE [13]): 90% |
| Cc1c(C(=O)Nc2nnnn2C)ccc(C(F)(F)F)c1C(=O)NCC(F)F [Example 1-30] | 100 | 100 | 100 | 100 | 100 | 100 | 100 | 80 | 80 | 100 | 100 | 100 | 80 | 80 | 80 | 80 | 80 | 100 | 100 | 100 | Post-emergence action against ALOMY in % (ALOMY [18]): 80%; Pre-emergence action against SETVI in % (SETVI [7]; dosage 20 g/ha): 90% |
